Data as given in paper PMC3192011 (Journal of medicinal chemistry, 2009).
Several values for one entry are separate records, joined by “and”; a condition that tells them apart may be missing. Equal entries are not always repeated. Entries after “also recorded” stand apart in the source; their conditions may differ. Where two headings read alike, the source gives them in different places.

Key:
mGlu5 [1] = molecular target: T1, mGlu5 (Rattus norvegicus, UniProt P31424); conditions: cited from earlier work
[2] = test system: amphetamine-induced hyperlocomotion in rats; conditions: cited from earlier work
mGlu5 [3] = molecular target: T1, mGlu5; assay: mGlu5 cell-based in vitro functional assay; conditions: for IC50/EC50 (nM): EC50: PAM, potentiation in the presence of glutamate EC20; for IC50/EC50 (nM): EC50 / IC50/EC50 (nM): IC50: average of at least three independent determinations; for IC50/EC50 (nM): IC50: NAM
[4] = test system: amphetamine-induced hyperlocomotion in rats; assay: Reversal of amphetamine-induced hyperlocomotion; format: in vivo
mGlu1 = mGlu1 (Homo sapiens, UniProt Q13255); assay: mGlu selectivity, mGlu1; format: cell-based
mGlu2 = mGlu2 (Homo sapiens, UniProt Q14416); assay: mGlu selectivity, mGlu2; format: cell-based
mGlu3 = mGlu3 (Homo sapiens, UniProt Q14832); assay: mGlu selectivity, mGlu3; format: cell-based
mGlu4 = mGlu4 (Homo sapiens, UniProt Q14833); assay: mGlu selectivity, mGlu4; format: cell-based
mGlu7 = mGlu7 (Homo sapiens, UniProt Q14831); assay: mGlu selectivity, mGlu7; format: cell-based
mGlu8 = mGlu8 (Homo sapiens, UniProt O00222); assay: mGlu selectivity, mGlu8; format: cell-based
punished responding = assay: Modified Geller-Seifter conflict model; format: in vivo, rodent; conditions: 1, 3, 10, 30 mg/kg

T1 sequence (P31424 21-1203): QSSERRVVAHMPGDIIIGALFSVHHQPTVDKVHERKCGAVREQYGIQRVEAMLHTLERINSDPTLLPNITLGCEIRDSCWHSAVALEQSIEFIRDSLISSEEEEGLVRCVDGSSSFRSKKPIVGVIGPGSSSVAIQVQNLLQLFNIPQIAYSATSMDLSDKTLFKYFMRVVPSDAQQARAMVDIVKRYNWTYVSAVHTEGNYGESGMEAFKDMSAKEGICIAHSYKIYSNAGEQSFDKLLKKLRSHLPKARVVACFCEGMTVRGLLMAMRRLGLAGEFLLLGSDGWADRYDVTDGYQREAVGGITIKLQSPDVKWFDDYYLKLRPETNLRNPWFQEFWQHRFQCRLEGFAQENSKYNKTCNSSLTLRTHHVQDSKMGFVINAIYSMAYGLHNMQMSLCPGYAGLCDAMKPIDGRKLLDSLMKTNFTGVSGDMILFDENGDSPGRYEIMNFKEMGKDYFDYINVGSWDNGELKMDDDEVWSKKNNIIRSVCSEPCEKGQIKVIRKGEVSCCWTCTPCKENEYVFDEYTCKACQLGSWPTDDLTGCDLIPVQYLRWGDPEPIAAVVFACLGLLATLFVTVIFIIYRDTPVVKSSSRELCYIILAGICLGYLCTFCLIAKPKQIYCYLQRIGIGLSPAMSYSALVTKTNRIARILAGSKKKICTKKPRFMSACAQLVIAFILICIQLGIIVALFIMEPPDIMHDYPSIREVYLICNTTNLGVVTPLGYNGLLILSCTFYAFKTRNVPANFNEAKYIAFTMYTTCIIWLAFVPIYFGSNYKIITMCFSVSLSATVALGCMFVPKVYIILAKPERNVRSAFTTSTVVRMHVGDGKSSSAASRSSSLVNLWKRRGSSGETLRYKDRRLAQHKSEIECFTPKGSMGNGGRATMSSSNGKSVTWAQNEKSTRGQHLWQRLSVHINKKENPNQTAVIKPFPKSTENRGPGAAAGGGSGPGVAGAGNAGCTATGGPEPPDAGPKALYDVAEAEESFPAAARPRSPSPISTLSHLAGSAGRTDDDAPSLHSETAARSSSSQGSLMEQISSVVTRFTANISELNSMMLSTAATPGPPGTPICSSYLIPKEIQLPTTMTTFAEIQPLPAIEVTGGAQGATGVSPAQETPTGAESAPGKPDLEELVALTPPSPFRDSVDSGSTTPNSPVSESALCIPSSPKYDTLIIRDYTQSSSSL
Chain of mGlu1 (Q13255 19-1194): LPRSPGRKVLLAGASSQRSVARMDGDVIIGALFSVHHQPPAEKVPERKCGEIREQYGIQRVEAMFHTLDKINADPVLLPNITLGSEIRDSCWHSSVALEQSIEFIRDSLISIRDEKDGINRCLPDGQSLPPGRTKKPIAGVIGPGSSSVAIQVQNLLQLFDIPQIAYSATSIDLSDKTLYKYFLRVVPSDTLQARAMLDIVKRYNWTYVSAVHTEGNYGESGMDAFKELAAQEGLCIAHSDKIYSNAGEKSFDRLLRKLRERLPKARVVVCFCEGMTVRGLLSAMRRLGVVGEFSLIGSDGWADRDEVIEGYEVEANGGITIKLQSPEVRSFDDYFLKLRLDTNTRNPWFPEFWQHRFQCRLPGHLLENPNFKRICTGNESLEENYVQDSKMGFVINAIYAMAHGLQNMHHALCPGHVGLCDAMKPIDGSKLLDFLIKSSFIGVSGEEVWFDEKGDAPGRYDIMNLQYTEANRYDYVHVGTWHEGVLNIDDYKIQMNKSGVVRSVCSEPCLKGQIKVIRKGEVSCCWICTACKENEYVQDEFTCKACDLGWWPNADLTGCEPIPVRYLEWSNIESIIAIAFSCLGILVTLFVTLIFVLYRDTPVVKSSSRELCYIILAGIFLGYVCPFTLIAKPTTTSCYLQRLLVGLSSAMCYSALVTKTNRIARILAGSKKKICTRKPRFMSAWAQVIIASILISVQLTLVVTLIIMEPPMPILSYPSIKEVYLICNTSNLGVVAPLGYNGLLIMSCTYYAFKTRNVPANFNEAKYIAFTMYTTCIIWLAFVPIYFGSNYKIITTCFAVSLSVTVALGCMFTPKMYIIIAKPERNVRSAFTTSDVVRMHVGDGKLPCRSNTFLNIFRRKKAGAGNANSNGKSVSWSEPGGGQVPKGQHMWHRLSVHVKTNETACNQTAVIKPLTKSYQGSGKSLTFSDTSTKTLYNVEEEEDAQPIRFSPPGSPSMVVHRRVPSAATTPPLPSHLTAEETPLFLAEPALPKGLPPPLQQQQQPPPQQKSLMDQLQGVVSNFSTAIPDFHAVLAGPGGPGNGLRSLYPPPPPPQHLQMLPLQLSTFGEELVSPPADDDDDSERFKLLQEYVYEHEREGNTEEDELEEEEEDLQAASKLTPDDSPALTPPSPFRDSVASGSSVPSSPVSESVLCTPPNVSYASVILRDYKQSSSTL
Chain of mGlu3 (Q14832 23-879): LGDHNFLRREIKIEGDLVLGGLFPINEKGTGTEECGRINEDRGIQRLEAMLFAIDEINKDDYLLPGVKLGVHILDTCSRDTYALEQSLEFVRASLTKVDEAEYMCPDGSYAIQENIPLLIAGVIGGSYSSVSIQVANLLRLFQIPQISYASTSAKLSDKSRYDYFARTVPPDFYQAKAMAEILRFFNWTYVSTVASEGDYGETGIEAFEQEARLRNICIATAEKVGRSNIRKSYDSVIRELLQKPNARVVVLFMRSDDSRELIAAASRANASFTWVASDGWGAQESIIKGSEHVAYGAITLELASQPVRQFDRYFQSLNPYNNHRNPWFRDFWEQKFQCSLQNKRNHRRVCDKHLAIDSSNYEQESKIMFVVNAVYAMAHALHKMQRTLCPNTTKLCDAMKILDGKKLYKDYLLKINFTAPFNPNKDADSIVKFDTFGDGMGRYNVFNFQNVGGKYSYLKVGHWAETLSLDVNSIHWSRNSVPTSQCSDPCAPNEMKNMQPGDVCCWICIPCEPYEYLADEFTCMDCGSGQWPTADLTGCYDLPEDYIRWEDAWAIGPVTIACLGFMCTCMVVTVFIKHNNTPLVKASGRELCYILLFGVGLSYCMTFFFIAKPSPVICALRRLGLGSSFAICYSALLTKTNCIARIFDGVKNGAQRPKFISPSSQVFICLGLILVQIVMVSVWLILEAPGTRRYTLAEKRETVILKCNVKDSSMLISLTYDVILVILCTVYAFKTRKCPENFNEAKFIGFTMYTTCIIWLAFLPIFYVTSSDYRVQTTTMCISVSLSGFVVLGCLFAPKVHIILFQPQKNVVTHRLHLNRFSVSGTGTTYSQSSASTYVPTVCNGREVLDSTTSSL
Chain of mGlu4 (Q14833 33-912): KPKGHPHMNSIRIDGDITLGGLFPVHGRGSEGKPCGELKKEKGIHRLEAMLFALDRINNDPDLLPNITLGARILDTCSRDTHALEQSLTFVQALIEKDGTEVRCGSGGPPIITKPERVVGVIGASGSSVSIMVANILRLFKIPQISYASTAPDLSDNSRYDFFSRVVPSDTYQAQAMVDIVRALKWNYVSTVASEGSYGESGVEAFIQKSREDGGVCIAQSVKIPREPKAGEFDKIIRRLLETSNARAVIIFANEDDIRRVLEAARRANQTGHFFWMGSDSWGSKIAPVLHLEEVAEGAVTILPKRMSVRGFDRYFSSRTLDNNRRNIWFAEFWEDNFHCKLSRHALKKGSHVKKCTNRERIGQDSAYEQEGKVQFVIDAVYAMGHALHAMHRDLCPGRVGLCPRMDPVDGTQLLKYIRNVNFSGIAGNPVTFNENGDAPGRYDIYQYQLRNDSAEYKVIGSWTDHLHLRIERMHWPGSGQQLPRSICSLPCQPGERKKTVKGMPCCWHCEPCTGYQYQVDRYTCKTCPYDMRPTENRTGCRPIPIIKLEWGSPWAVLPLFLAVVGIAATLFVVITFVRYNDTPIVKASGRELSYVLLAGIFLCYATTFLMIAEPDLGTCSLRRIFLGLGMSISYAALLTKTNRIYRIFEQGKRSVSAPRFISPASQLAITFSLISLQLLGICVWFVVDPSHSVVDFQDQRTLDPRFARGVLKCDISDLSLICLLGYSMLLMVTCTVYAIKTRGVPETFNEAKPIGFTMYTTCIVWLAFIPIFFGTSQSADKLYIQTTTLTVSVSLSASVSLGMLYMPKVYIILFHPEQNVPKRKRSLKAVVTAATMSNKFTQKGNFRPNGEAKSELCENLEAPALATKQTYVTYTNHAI
Chain of mGlu7 (Q14831 35-915): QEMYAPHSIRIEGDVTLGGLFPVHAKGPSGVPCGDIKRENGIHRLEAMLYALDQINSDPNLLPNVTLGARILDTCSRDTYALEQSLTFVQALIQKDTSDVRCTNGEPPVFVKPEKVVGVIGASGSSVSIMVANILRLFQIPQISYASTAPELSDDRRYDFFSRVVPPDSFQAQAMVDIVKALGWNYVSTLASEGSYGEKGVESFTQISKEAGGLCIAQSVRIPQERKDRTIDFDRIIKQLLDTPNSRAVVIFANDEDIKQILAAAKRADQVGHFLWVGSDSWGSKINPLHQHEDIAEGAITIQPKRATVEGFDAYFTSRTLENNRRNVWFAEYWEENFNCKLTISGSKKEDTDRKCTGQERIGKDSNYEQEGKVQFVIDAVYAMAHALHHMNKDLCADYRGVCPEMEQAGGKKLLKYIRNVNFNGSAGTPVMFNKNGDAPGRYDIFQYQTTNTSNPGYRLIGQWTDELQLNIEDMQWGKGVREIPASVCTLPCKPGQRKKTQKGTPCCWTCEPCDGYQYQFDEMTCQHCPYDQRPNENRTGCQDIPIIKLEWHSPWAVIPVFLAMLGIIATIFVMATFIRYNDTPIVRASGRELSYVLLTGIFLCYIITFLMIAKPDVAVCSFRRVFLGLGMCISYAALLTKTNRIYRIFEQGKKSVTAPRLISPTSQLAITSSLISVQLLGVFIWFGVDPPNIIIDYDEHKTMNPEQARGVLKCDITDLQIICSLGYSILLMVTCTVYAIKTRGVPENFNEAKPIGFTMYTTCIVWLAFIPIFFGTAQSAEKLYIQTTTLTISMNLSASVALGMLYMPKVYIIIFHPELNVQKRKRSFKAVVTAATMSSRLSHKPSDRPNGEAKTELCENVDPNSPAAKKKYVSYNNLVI

Cc1ccc(C#Cc2cncnc2)cc1 [compound 10]
IC50/EC50 (nM): EC50 (mGlu5 [1]; PAM, table value of earlier compound): 3,300±290 nM
Fold Shift (mGlu5 [1]; mGlu5 PAM): 4.2 fold
efficacy, % of glutamate max (mGlu5 [1]; mGlu5 PAM): 99%

O=C(c1ccc(F)cc1)N1CCC[C@H](c2nc(-c3ccc(F)cc3)no2)C1 [compound 7, reference compound]
mode of mGlu5 pharmacology in words (mGlu5 [1]): ago-potentiators
efficacy in amphetamine-induced hyperlocomotion model [2]: robust efficacy

CNc1ncc(C#Cc2ccccc2)cn1 [16b]
mGlu5 activity in words (mGlu5 [3]): pure mGlu5 PAM
IC50/EC50 (nM): EC50 (mGlu5 [3]): 14.3 nM
activity in the absence of glutamate (agonism) (mGlu5 [3]; no glutamate): does not activate mGlu5
reversal of amphetamine-induced hyperlocomotion ([4]; i.p. 3, 10 or 30 mg/kg thirty minutes prior to s.c. 1 mg/kg amphetamine, vehicle 10% Tween 80): significant reversal noted at the 30 mg/kg dose; also recorded: dose-dependent manner
effect of compound/vehicle alone on locomotion (sedation) ([4]; without amphetamine): no effect

N#Cc1cccc(C(=O)Nc2cc(-c3ccccc3)nn2-c2ccccc2)c1 [compound 6, reference compound]
mode of mGlu5 pharmacology in words (mGlu5 [1]): ago-potentiators
efficacy in amphetamine-induced hyperlocomotion model [2]: robust efficacy

Cc1ccc(C#Cc2ncccn2)cc1 [17c]
mGlu5 activity in words (mGlu5 [3]): inactive

CSc1ncc(C#Cc2ccccc2)cn1 [16d]
IC50/EC50 (nM): EC50 (mGlu5 [3]): 120 nM

CC(C)(C)c1ncc(C#Cc2ccccc2)cn1 [16e]
IC50/EC50 (nM): EC50 (mGlu5 [3]): 247 nM

CNc1ncc(C#Cc2cccc(C)c2)cn1 [16c]
IC50/EC50 (nM): EC50 (mGlu5 [3]): 21.1 nM and 21 nM

Cc1cccc(C#Cc2ncccn2)c1 [17b]
IC50/EC50 (nM): IC50 (mGlu5 [3]): 10.8 ± 2.7 nM
selectivity vs. mGlu1 (mGlu1): > 10 µM
selectivity vs. mGlu2 (mGlu2): > 10 µM
selectivity vs. mGlu3 (mGlu3): > 10 µM
selectivity vs. mGlu4 (mGlu4): > 10 µM
selectivity vs. mGlu7 (mGlu7): > 10 µM
selectivity vs. mGlu8 (mGlu8): > 10 µM
unpunished responding (punished responding): no significant effect on unpunished responding; also recorded: did not change significantly at any of the doses tested
punished responding vs vehicle (punished responding; p < 0.05 Newman-Keul): both the 10 and 30 mg/kg doses in the punished component of the schedule differed significantly from vehicle; also recorded: significantly greater number of responses than animals tested on vehicle

CCOc1ncc(C#Cc2cccc(C)c2)cn1 [16a]
IC50/EC50 (nM): IC50 (mGlu5 [3]): 21 nM

CNc1ncc(C#Cc2ccc(C)cc2)cn1 [16f]
mGlu5 activity in words (mGlu5 [3]): weak mGlu5 PAM
